Laboratory results: PubChem BioAssay (NCI)
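Tested at 5 concentrations; 48 h exposure; 96-well plates; endpoints linearly interpolated, else capped at highest concentration. The concentration for 50% growth inhibition is given as GI50. At the TGI there is no net growth.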

Columns and labels:
Experiment in all cases: inhibition of tumour cell growth, NCI panel, 48 h
BT-549 breast = tested on: BT-549 breast
HCT-15 colon = tested on: HCT-15 colon
K-562 leukemia = tested on: K-562 leukemia
RXF 393 renal = tested on: RXF 393 renal
HS 578T breast = tested on: HS 578T breast
SR leukemia = tested on: SR leukemia

Row | Structure (SMILES) | TGI (BT-549 breast) | TGI (HCT-15 colon) | TGI (K-562 leukemia) | TGI (RXF 393 renal) | TGI (HS 578T breast) | TGI (SR leukemia) | GI50 (BT-549 breast) | GI50 (HCT-15 colon) | GI50 (K-562 leukemia) | GI50 (RXF 393 renal) | GI50 (SR leukemia)
1 | Cc1nc2nnc(CCCCCCCCc3nnc4nc(C)[nH]n34)n2[nH]1 | > 100 µM | > 100 µM | > 100 µM | > 100 µM |  |  |  |  |  |  | 
2 | COc1ccc2nc(-c3ccc(N)cc3)sc2c1 | > 100 µM | > 100 µM | > 100 µM | > 100 µM | > 100 µM | > 100 µM |  |  |  |  | 
3 | O=[N+]([O-])c1ccc(CSC2=C(c3ccc(Cl)cc3)S/C(=C3\SC(SCc4ccc([N+](=O)[O-])cc4)=C(c4ccc(Cl)cc4)S3)S2)cc1 | > 100 µM | > 100 µM | > 100 µM | > 100 µM | > 100 µM |  |  |  |  |  | 
4 | CCn1c(=O)c2nc(SC)sc2n(-c2ccccc2)c1=S |  | > 100 µM | 55.1 µM | > 100 µM | > 100 µM | > 100 µM |  |  |  |  | 
5 | C#C[C@]1(O)CC[C@H]2[C@@H]3CCC4=C/C(=N/OC(=O)c5cccc6cc7ccccc7nc56)CC[C@@H]4[C@H]3CC[C@@]21CC | > 100 µM | > 100 µM | > 100 µM | > 100 µM | > 100 µM | > 100 µM |  |  |  |  | 
6 | CSC(SC)=C(C#N)C(=O)Nc1ccc(Cl)cc1 | > 100 µM | > 100 µM | > 100 µM | 54.9 µM | > 100 µM | > 100 µM |  |  |  |  | 
7 | C/C(=C\COP(=O)(O)OP(=O)(O)O)CC/C=C(\C)CNc1c(F)c(F)c(F)c(F)c1F |  | > 100 µM | > 100 µM | > 100 µM | > 100 µM | 0.308 µM |  |  |  |  | 
8 | C[N+]1(CC[N+]2(C)CCCC2c2cccnc2)CCCC1c1cccnc1 (stereo not drawn) | > 100 µM | > 100 µM | > 100 µM | > 100 µM | > 100 µM | > 100 µM |  |  |  |  | 
9 | Cc1ccc2c(c1)CC1(Cc3cc(C)ccc3C1=O)C2=O |  | > 100 µM | > 100 µM | > 100 µM | > 100 µM | > 100 µM |  |  |  |  | 
10 | Cc1cccc(NC(=S)NNC(=O)c2cc(-c3ccccc3)nc3ccccc23)c1 | > 100 µM | > 100 µM | > 100 µM | 68.3 µM | > 100 µM | 41.1 µM |  |  |  |  | 
11 | CN(C)CCCn1c(-c2ccc(Br)cc2)csc1=Nc1ccccc1 | 31.6 µM | 71 µM | 47.8 µM | 29.8 µM |  | 46.8 µM |  |  |  |  | 
12 | NC1=Nc2ncccc2C(=O)NN1 | > 10 µM | > 10 µM | > 10 µM | > 10 µM | > 10 µM | > 10 µM |  |  |  |  | 
13 | CCOC(=O)c1c(NS(=O)(=O)c2ccccc2)sc2c1CCCC2 | > 100 µM | > 100 µM | > 100 µM | > 100 µM | > 100 µM | > 100 µM |  |  |  |  | 
14 | COc1cccc(C2c3cc4c(cc3OC(NNS(=O)(=O)c3ccc(C)cc3)C2C)OCO4)c1O (stereo not drawn) | 68.8 µM | > 100 µM | 39.4 µM | 70.9 µM | 41.6 µM | 26.2 µM |  |  |  |  | 
15 | C=CC[PH+](c1ccccc1)c1ccccc1.C=CC[PH+](c1ccccc1)c1ccccc1.[Pt+2].[S-]c1nc2ccccc2[nH]1.[S-]c1nc2ccccc2[nH]1 | 5.54 µM | > 100 µM | > 100 µM | 7.06 µM |  | > 100 µM | 2.11 µM | 6.34 µM | 0.62 µM | 2.61 µM | 2.71 µM
16 | O=C(OC[C@H]1C[C@H]2C(=O)OCCC[C@H]2O1)c1ccccc1 |  | > 100 µM | > 100 µM |  | > 100 µM | > 100 µM |  |  |  |  | 

Row | Structure (SMILES) | TGI (BT-549 breast) | TGI (HCT-15 colon) | TGI (K-562 leukemia) | TGI (RXF 393 renal) | TGI (HS 578T breast) | TGI (SR leukemia) | GI50 (BT-549 breast) | GI50 (HCT-15 colon) | GI50 (K-562 leukemia) | GI50 (RXF 393 renal) | GI50 (SR leukemia)
17 | COC(=O)[C@@H]1CN(C(=O)Cc2ccccc2)C(=O)N1 |  |  | > 100 µM | > 100 µM | > 100 µM | > 100 µM |  |  |  |  | 
18 | Cc1cc2nc3c(N)nn(CCCN(C)C)c3nc2cc1C | > 100 µM | > 100 µM |  | > 100 µM | > 100 µM |  |  |  |  |  | 
19 | COc1ccc(/C=N/n2c(-c3ccccc3)n[nH]c2=O)c(OC)c1 | > 44.6 µM | > 100 µM | > 100 µM | > 93.4 µM | 80 µM | > 100 µM |  |  |  |  | 
20 | CN1N=C(c2ccncc2)OC1c1ccc(C(F)(F)F)cc1 (stereo not drawn) |  | > 100 µM | > 100 µM | > 100 µM | > 100 µM |  |  |  |  |  | 
21 | Cc1ccc([N+](=O)[O-])cc1S(=O)(=O)Nc1ccc(C2=NN(S(=O)(=O)c3cc([N+](=O)[O-])ccc3C)C(c3ccccc3O)C2)cc1 (stereo not drawn) | > 100 µM | > 100 µM | > 100 µM | > 100 µM |  | > 100 µM |  |  |  |  | 
22 | CCN(CC)C(=O)N[C@@H](CC(C)C)C(=O)NC | > 100 µM | > 100 µM | > 100 µM | > 100 µM | > 100 µM | > 100 µM |  |  |  |  | 
23 | O=C(Cn1c(=O)oc2ccccc21)N(c1ccccc1)c1ccccc1 | > 100 µM | > 100 µM | > 100 µM | > 100 µM | > 100 µM | > 100 µM |  |  |  |  | 
24 | CN(CCNC(=O)c1nn(C)c2c1Cc1ccccc1-2)CCNC(=O)c1nn(C)c2c1Cc1ccccc1-2 | 30.9 µM | 34.4 µM | 29.6 µM | 29.5 µM |  |  |  |  |  |  | 
25 | CC(C)C1OC(=O)C(Cc2ccccc2)N(C)C(=O)C(C(C)C)OC(=O)C(Cc2ccccc2)N(C)C(=O)C(C(C)C)OC(=O)C(Cc2ccccc2)N(C)C1=O (stereo not drawn) | 3.01 µM | 2.61 µM | 3.52 µM | 2.33 µM | 4.9 µM | 4.06 µM |  |  |  |  | 
26 | CC[C@@]1(O)C(=O)OCc2c1cc1n(c2=O)Cc2c-1nc1ccc(N)cc1c2CC[Si](C)(C)C | 13.1 µM | 14.2 µM | > 38.2 µM | 0.257 µM | 27.3 µM | < 0.01 µM |  |  |  |  | 
27 | CCOC(=O)c1cccc(N=NNc2cccc(C(=O)OCC)c2)c1 | > 100 µM | > 100 µM | > 100 µM | 62.9 µM | 77.3 µM | > 100 µM |  |  |  |  | 
28 | COC(=O)c1sc2c(c1C(=O)OC)C(=Nc1ccc(OC)cc1)SC2=Nc1ccc(OC)cc1 | 3.43 µM | 1.66 µM |  | 1.72 µM |  | > 100 µM |  |  |  |  | 
29 | COc1ccc(Cl)cc1NC(=O)O/N=C(\Cl)C(C)C | 6.9 µM |  | 7.59 µM | 17.4 µM | 69.2 µM |  |  |  |  |  | 
30 | COc1cc2c(cc1C)NC(=O)/C2=C/c1c(Cl)[nH]c2ccccc12 | 9.35 µM | 14.6 µM | > 100 µM | 24.7 µM | 28.7 µM | 23.1 µM |  |  |  |  | 
31 | Clc1ccc(Cc2nc3cc(Cl)c(Cl)cc3n2CC2CCCN3CCCCC23)cc1 (stereo not drawn) | 26.1 µM | 23.3 µM | > 100 µM | 37.6 µM | 26.5 µM | 15.1 µM |  |  |  |  | 
